The values below come from patent US20130190314A1, “DERIVATIVES OF 6-CYCLOAMINO-2-THIENYL-3-(PYRIDIN-4-YL)IMIDAZO[1,2-b]-PYRIDAZINE AND 6-CYCLOAMINO-2-FURANYL-3-(PYRIDIN-4-YL)IMIDAZO[1,2-b]-PYRIDAZINE, PREPARATION AND THERAPEUTIC USE THEREOF” (priority 2008, published 2013).

Structures are written as SMILES.

For orientation: melting point means the temperature, or range, at which the solid turns liquid.

Data set [1] relates to Mper1-luc Rat-1 (P2C4) fibroblasts. The data set is described as follows: Circadian cell assay: mPer1-promoter luciferase reporter, period prolongation. It counts as cell-based. Particulars: effective concentration that induced a 1-hour prolongation of the circadian period. The protocol: Mper1-luc Rat-1 (P2C4) fibroblast cultures were prepared by dividing the cultures every 3-4 days (approximately 10-20% of confluence) on 150 cm^2 degassed polystyrene tissue culture flasks (Falcon® #35-5001) and maintained in growth medium [EMEM (Cellgro #10-010-CV); 10% foetal bovine serum (FBS; Gibco #16000-044); and 50 I.U./ml of penicillin-streptomycin (Cellgro #30-001-CI)] at 37° C. and under 5% CO2.
Cells obtained from Rat-1 fibroblast cultures at 30-50% of confluence as described above were co-transfected with vectors containing the selectable marker for zeocin resistance for a stable transfection and a luciferase reporter gene controlled by the mPer-1 promoter. After 24 to 48 hours, the cultures were divided on 96-well plates and maintained in growth medium supplemented with 50-100 μg/ml of zeocin (Invitrogen® #45-0430) for 10-14 days. The zeocin-resistant stable transfectants were evaluated for the expression of the reporter gene by adding 100 μM luciferin (Promega® #E1603®) to the growth medium and by assaying the luciferase activity on a TopCount® scintillation counter (Packard Model #C384V00). The Rat-1 cell clones expressing both zeocin resistance and luciferase activity controlled by mPer1 were serum-shock synchronized with 50% horse serum [HS (Gibco® #16050-122)] and the activity of the circadian reporter was evaluated. The P2C4 clone of Mper1-luc Rat-1 fibroblasts was selected to test the compound.
Mper1-luc Rat-1 (P2C4) fibroblasts at 40-50% of confluence, obtained according to the protocol described above, were plated out onto 96-well opaque tissue culture plates (Perkin Elmer® #6005680). The cultures are maintained in growth medium supplemented with 100 μg/mL of zeocin (Invitrogen #45-0430) until they have reached 100% of confluence (48-72 h). The cultures were then synchronized with 100 μl of synchronization medium [EMEM (Cellgro #10-010-CV); 100 I.U./ml of penicillin-streptomycin (Cellgro #30-001-C1); HS at 50% (Gibco #16050-122)] for 2 hours at 37° C. and under 5% CO2. After synchronization, the cultures were rinsed with 100 μl of EMEM (Cellgro #10-010-CV) for 10 minutes at ambient temperature. After rinsing, the medium was replaced with 300 μl of CO2 independent medium [CO2I (Gibco #18045-088); 2 mM L-glutamine (Cellgro #25-005-C1); 100 I.U./ml of penicillin-streptomycin (Cellgro #30-001-C1); 100 μM luciferin (Promega #E 1603)]. […]
The period analysis was performed either by determining the interval between the relative light emission minima over several days or by Fourier transform. […] The data were analysed by adjusting a hyperbolic curve to the data expressed as change of period (Y-axis) as a function of the concentration of the test compound (X-axis) in the XLfit™ software, and the CE Delta (t+1 h) was interpolated from this curve.
In general terms: In a reporter assay the amount or activity of a reporter protein is the signal.

Regarding `OCCN1CCN(c2ccc3nc(-c4ccc(Cl)s4)c(-c4ccncc4)n3n2)CC1` [Compound 14, 2-{4-[2-(5-chlorothien-2-yl)-3-(pyridin-4-yl)imidazo[1,2-b]pyridazin-6-yl](piperazin-1-yl)}ethanol], the melting point is 216 to 218 °C. The “CE Delta (t + 1 h)” value in data set [1] was 60 to 117 nM.

Turning to `Cc1ccc(-c2nc3ccc(N4CCNCC4)nn3c2-c2ccncc2)s1` [Compound 10, 2-(5-methylthien-2-yl)-6-(piperazin-1-yl)-3-(pyridin-4-yl)imidazo[1,2-b]pyridazine], in data set [1], the “CE Delta (t + 1 h)” value was found to be 360 nM.
